The numbers were not newly measured in US20090285877A1, “Percutaneous absorption preparation containing palonosetron” (HISAMITSU PHARMACEUTICAL CO., INC.,, priority 2008, published 2009), which cites them from elsewhere.

This data set deals with T1, 5-HT3 receptor (Homo sapiens, UniProt P46098).
T1 sequence (P46098 24-478): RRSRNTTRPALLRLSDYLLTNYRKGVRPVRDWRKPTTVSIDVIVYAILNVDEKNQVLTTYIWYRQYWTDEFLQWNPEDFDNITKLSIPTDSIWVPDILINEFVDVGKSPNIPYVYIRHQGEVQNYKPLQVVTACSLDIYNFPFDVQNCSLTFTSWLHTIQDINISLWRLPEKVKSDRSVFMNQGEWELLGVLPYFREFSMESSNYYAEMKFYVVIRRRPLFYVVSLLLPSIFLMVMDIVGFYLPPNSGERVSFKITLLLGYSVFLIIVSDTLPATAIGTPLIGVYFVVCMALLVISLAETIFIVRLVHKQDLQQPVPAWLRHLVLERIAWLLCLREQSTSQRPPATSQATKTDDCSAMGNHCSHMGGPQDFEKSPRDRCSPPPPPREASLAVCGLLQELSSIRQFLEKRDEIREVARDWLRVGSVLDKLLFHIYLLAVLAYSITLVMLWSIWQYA

SMILES strings stand for the structures.

For `Cl.O=C1c2cccc3c2[C@H](CCC3)CN1[C@@H]1CN2CCC1CC2` [Palonosetron hydrochloride, (3aS)-2-[(S)-1-azabicyclo[2.2.2]oct-3-yl]-2,3,3a,4,5,6-hexahydro-1-oxo-1H-1Hbenz[de]isoquinoline hydrochloride], the “binding affinity for 5-HT3 receptor” value was “high binding affinity”.
